Measurements: PubChem BioAssay (NCI)
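These data come from cells grown in 96-well plates and exposed to compound for 48 hours at five concentrations. TGI: total growth inhibition.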

How the values were obtained:
Test in all cases: NCI tumour cell line growth inhibition, 48 h
LOX IMVI melanoma = tested on: LOX IMVI melanoma
TK-10 renal = tested on: TK-10 renal
A498 renal = tested on: A498 renal
SW-620 colon = tested on: SW-620 colon
OVCAR-4 ovarian = tested on: OVCAR-4 ovarian
HOP-62 NSCLC = tested on: HOP-62 NSCLC
OVCAR-5 ovarian = tested on: OVCAR-5 ovarian
NCI/ADR-RES ovarian = tested on: NCI/ADR-RES ovarian
SNB-19 CNS = tested on: SNB-19 CNS
IGROV1 ovarian = tested on: IGROV1 ovarian
UACC-257 melanoma = tested on: UACC-257 melanoma
SK-OV-3 ovarian = tested on: SK-OV-3 ovarian
SNB-75 CNS = tested on: SNB-75 CNS
OVCAR-3 ovarian = tested on: OVCAR-3 ovarian
T-47D breast = tested on: T-47D breast
CAKI-1 renal = tested on: CAKI-1 renal
RPMI-8226 leukemia = tested on: RPMI-8226 leukemia
UACC-62 melanoma = tested on: UACC-62 melanoma
K-562 leukemia = tested on: K-562 leukemia
NCI-H226 lung = tested on: NCI-H226 lung

Row | Compound | TGI (LOX IMVI melanoma) | TGI (TK-10 renal) | TGI (A498 renal) | TGI (SW-620 colon) | TGI (OVCAR-4 ovarian) | TGI (HOP-62 NSCLC) | TGI (OVCAR-5 ovarian) | TGI (NCI/ADR-RES ovarian) | TGI (SNB-19 CNS) | TGI (IGROV1 ovarian) | TGI (UACC-257 melanoma) | TGI (SK-OV-3 ovarian) | TGI (SNB-75 CNS) | TGI (OVCAR-3 ovarian) | TGI (T-47D breast) | TGI (CAKI-1 renal) | TGI (RPMI-8226 leukemia) | TGI (UACC-62 melanoma) | TGI (K-562 leukemia) | TGI (NCI-H226 lung)
1 | Nc1ccc2nc3n(c2c1)C(c1c(F)cccc1F)SC3 (centres undefined) | > 100 µM | > 100 µM | > 100 µM | > 100 µM | > 100 µM | > 100 µM | > 100 µM | > 100 µM | > 100 µM | > 100 µM | > 100 µM | > 100 µM | > 100 µM | > 100 µM | > 100 µM | > 100 µM | > 100 µM | > 100 µM | > 100 µM | –
2 | CCCC(=O)Oc1c2ccsc2c(OC(=O)CCC)c2ccsc12 | 10.7 µM | 7.67 µM | 7.34 µM | 8.9 µM | 5.7 µM | 2.9 µM | 7.36 µM | 4.55 µM | 5.28 µM | 6.87 µM | 1.82 µM | 10.4 µM | – | 4.5 µM | 12.1 µM | 11.7 µM | 5.48 µM | 2.07 µM | 8.46 µM | 7.15 µM
3 | Cc1cc(C)n(CN(CCCCO)Cn2nc(C)cc2C)n1 | 51.2 µM | > 100 µM | > 100 µM | 63 µM | 61.9 µM | 47.6 µM | 51.1 µM | 39 µM | > 100 µM | 73.4 µM | 80 µM | > 100 µM | – | 58 µM | 66.5 µM | 99.5 µM | 20.3 µM | 36.9 µM | 52.7 µM | –
4 | CC1(C)CC[C@]2(C)[C@@H](O)C[C@]3(C)C(=CC[C@@H]4[C@@]5(C)CC[C@H](O)C(C)(C)[C@@H]5CC[C@]43C)[C@@H]2C1 | 46.1 µM | 93.2 µM | 99.2 µM | > 100 µM | > 100 µM | > 100 µM | > 100 µM | > 100 µM | > 100 µM | > 100 µM | > 100 µM | 40.7 µM | – | > 100 µM | 67.7 µM | > 100 µM | – | > 100 µM | > 100 µM | > 100 µM
5 | CSc1c(C(N)=S)c(N)nn1-c1ccccc1 | > 100 µM | > 100 µM | > 100 µM | > 100 µM | > 100 µM | – | > 100 µM | > 100 µM | > 100 µM | > 100 µM | > 100 µM | > 100 µM | > 100 µM | > 100 µM | > 100 µM | > 100 µM | > 100 µM | > 100 µM | > 100 µM | > 100 µM
6 | Nc1nncc2n[nH]nc12 | – | > 100 µM | > 100 µM | > 100 µM | – | > 100 µM | > 100 µM | > 100 µM | > 100 µM | > 100 µM | > 100 µM | – | > 100 µM | > 100 µM | > 100 µM | > 100 µM | > 100 µM | > 100 µM | – | > 100 µM
7 | Cc1cc(OP2(=O)NCc3ccncc3O2)ccc1Cl (centres undefined) | > 100 µM | – | > 100 µM | > 100 µM | > 100 µM | > 100 µM | > 100 µM | > 100 µM | > 100 µM | > 100 µM | > 100 µM | – | > 100 µM | > 100 µM | > 100 µM | > 100 µM | > 100 µM | > 100 µM | > 100 µM | > 100 µM
8 | Fc1ccccc1-c1cc(=S)c2cc3c(cc2[nH]1)OCO3 | > 100 µM | > 100 µM | > 100 µM | > 100 µM | > 100 µM | > 100 µM | > 100 µM | 63.2 µM | 98.1 µM | > 100 µM | > 100 µM | > 100 µM | – | > 100 µM | > 100 µM | > 100 µM | > 70 µM | > 30 µM | > 100 µM | > 100 µM
9 | CCOC(=O)c1ccc(NCc2ccc3nc(OC)c(OC)nc3c2)cc1 | > 100 µM | – | > 100 µM | > 100 µM | > 100 µM | > 100 µM | > 100 µM | > 100 µM | > 100 µM | > 100 µM | > 100 µM | > 100 µM | > 100 µM | > 100 µM | > 100 µM | > 100 µM | – | > 100 µM | > 100 µM | > 100 µM
10 | CC(=O)OC(OC(C)=O)c1c2ccccc2cc2ccccc12 | 59.9 µM | 61.2 µM | 40.7 µM | > 100 µM | – | – | 75.6 µM | 46.7 µM | 96.3 µM | 55.9 µM | 41 µM | 52.4 µM | 43.9 µM | 67.3 µM | 85.2 µM | > 100 µM | 87.2 µM | 41.7 µM | 27.8 µM | 37.7 µM
11 | COc1ccc(CC2Cc3ccccc3CC(=O)N2)cc1OC (centres undefined) | > 100 µM | > 100 µM | > 100 µM | > 100 µM | > 100 µM | > 100 µM | > 100 µM | > 100 µM | > 100 µM | > 100 µM | > 100 µM | > 100 µM | > 100 µM | > 100 µM | 58.5 µM | > 100 µM | – | > 100 µM | > 100 µM | > 100 µM
12 | CCOC(=O)c1ccc(Nc2nc3ccccc3n3cccc23)cc1 | > 100 µM | > 100 µM | > 100 µM | > 100 µM | – | 75.7 µM | > 100 µM | > 100 µM | > 100 µM | > 100 µM | > 100 µM | 92.4 µM | 48.3 µM | > 100 µM | 47.7 µM | > 100 µM | > 100 µM | > 100 µM | > 100 µM | –
